Read-outs that look alike come from different tables or passages of the source.
Assays:
PEPT1 = details: tested at 1 mM on oocytes expressing PEPT1; normalised to 1 mM glycyl-sarcosine
Experimental: (§1) Rat and human PEPT1 and PEPT2 expressing CHO cell lines were prepared as described in PCT Application WO01/20331. Gabapentin-containing dipeptides were evaluated for interaction with the peptide transporters using a radiolabeled substrate uptake assay in a competitive inhibition format, as described in PCT Application WO01/20331. Transport-induced currents were also measured in Xenopus oocytes transfected with rat and human PEPT1 and PEPT2.
(§2) RNA preparation: Rat and human PEPT1 and PEPT2 transporter cDNAs were subdcloned into a modified pGEM plasmid that contains 5′ and 3′ untranslated sequences from the Xenopus β-actin gene. These sequences increase RNA stability and protein expression. Plasmid cDNA was linearized and used as template for in vitro transcription (Epicentre Technologies transcription kit, 4:1 methylated:non-methylated GTP).
(§3) Xenopus oocyte isolation. Xenopus laevis frogs were anesthetized by immersion in Tricaine ([…] in deionized water) for 15 min. […]
(§4) Electrophysiology measurements. Transport currents were measured 2-14 days after injection, using a standard two-electrode electrophysiology set-up (Geneclamp 500 amplifier, Digidata 1320/PCLAMP software and ADInstruments hardware and software were used for signal acquisition).

PEPT2 = details: tested at 1 mM on oocytes expressing PEPT2; normalised to 1 mM glycyl-sarcosine
Experimental: as §1, §2, §3, §4

[1] = Caco-2 homogenate S9 stability; format: in vitro ADME; details: incubation with Caco-2 homogenate for 1 hour, 5 μM, 37° C.
Experimental: Tissue homogenates and plasma samples were obtained from commercial sources (Pel-Freez Biologicals, Rogers, Ark., and GenTest Corporation, Woburn, Mass.). Stability of prodrugs toward the specific enzyme aminopeptidase was also evaluated by incubation with the purified enzyme. Experimental conditions used for the in vitro studies were as follows. Each preparation was incubated with test compound at 37° C. for one hour. Aliquots (50 μL) were removed at 0, 30, and 60 min and quenched with 0.1% trifluoroacetic acid in acetonitrile. Samples were then centrifuged and analyzed for the presence of prodrug and released gabapentin by LC/MS/MS as described below.
Concentrations of prodrug or gabapentin in tissue extracts were determined by direct injection onto an API 2000 LC/MS/MS equipped with an Agilent 1100 binary pump and autosampler. Separation was achieved using a 3.5 μm Zorbax Ellipse XDB-C8 4.4×150 mm column heated to 45° C. during the analysis. The mobile phases were: 0.1% formic acid in water (A) and 0.1% formic acid in acetonitrile (B). The gradient condition was: 2% B for 0.5 min, increasing to 90% B in 2.0 min, maintained for 2.5 min and returning to 2% B for 2 min. A TurboIonSpray source was used on the API 2000. The analysis was performed in the positive ion mode and MRM transitions of 172.0/137.2 were used in the analysis of gabapentin (2). Ten microliters of the sample extracts were injected. Peaks were integrated using Analyst quantitation software. The method was linear for (2) over the concentration range 0.002 to 2.5 μg/mL respectively.
Caco-2 Homogenate S9 Stability: Caco-2 cells were grown for 21 days prior to harvesting. Culture medium was removed and cell monolayers were rinsed and scraped off into ice-cold 10 mM sodium phosphate/0.15 M potassium chloride, pH 7.4. Cells were lysed by sonication at 4° C. using a probe sonicator. Lysed cells were then transferred into 1.5 mL centrifuge vials and centrifuged at 9000 g for 20 min at 4° C. The resulting supernatant (Caco-2 cell homogenate S9 fraction) was aliquoted into 0.5 mL vials and stored at −80° C. until used.
For stability studies, prodrug (5 μM) was incubated in Caco-2 homogenate S9 fraction (0.5 mg protein per mL) for 60 min at 37° C. Concentrations of intact prodrug and released drug were determined at zero time and 60 minutes using LC/MS/MS.

[2] = rat; for Cmax PD (Cmax of prodrug in plasma): oral prodrug 25 mg-equivalents of gabapentin per kg; for Cmax of gabapentin in plasma: single oral dose 25 mg/kg gabapentin or 25 mg-equivalents of gabapentin per kg
Experimental: The pharmacokinetics of the prodrugs prepared in Examples 1 and 3 were examined in rats. […] Animals were fasted overnight prior to dosing and until 4 hours post-dosing. Serial blood samples were obtained over 24 hours following dosing and blood was processed for plasma by centrifugation. Plasma samples were stored at −80° C. until analyzed.
Plasma (50 μL) was precipitated by addition of […] of methanol and supernatant was injected directly onto the LC/MS/MS system. […] Following oral administration of gabapentin prodrugs, concentrations of prodrug and gabapentin in plasma were monitored over 24 hours.

[3] = monkey, sodium salt, 10 mg-equivalents of gabapentin per kg
[4] = monkey; for AUC G (AUC of gabapentin) / Cmax G (Cmax of gabapentin) / increase in gabapentin exposure (as measured by AUC) on a 7.5-fold increase in dose: oral; for increase in gabapentin exposure (as measured by AUC) on a 7.5-fold increase in dose: 10 to 75 mg-eq/kg
Experimental: The prodrug was administered orally to four adult male monkeys (approximate body weight of 6.5 kg) via an oral nasogastric tubeas solutions in water or PEG 400. The dose was 10 or 75 mg-equivalents of gabapentin per kg body weight. Animals were fasted overnight before the study and for 4 hours post-dosing. Blood samples (1.0 mL) were obtained via femoral or cephalic venipuncture at intervals over 48 hours after oral dosing. Blood was processed immediately for plasma and plasma was frozen at −80° C. until analyzed. […] Oral bioavailability was determined by comparison of area under the gabapentin concentration versus time curve (AUC) following oral administration of prodrug or intravenous administration of an equimolar dose of gabapentin hydrochloride.

[5] = rat, oral and i.v. dosing of prodrug

CC(C)C[C@H](CNC(=O)[C@@H](N)Cc1ccc(Br)cc1)CC(=O)O [compound 5, L-4-Bromophenylalanine-Pregabalin]
PEPT-specific currents above background (PEPT1): at least 5 % of Imax for Gly-Sar
PEPT-specific currents above background (PEPT2): at least 5 % of Imax for Gly-Sar

N[C@@H](Cc1ccc(Br)cc1)C(=O)NCC1(CC(=O)O)CCCCC1 [1ah, L-4-Bromophenylalanine-Gabapentin]
% of prodrug surviving intact [1]: 79%
Cmax PD (Cmax of prodrug in plasma) [2]: 103000 ng/mL
Cmax of gabapentin in plasma [2]: 6100 ng/mL
AUC G (AUC of gabapentin) ([3]; oral): 29100 ± 3500 ng·h/mL
AUC PD (AUC of prodrug) ([3]; oral): 18900 ± 6500 ng·h/mL
Cmax G (Cmax of gabapentin) ([3]; oral): 3800 ± 1100 ng/mL
Cmax PD (Cmax of prodrug) ([3]; oral): 14900 ± 5300 ng/mL
F (oral bioavailability as gabapentin) [3]: 49.1±6.8%

NCC1(CC(=O)O)CCCCC1 [compound 2, gabapentin]
Cmax of gabapentin in plasma [2]: 10300 ng/mL
F (oral bioavailability as gabapentin) ([4]; 10 mg-eq/kg): 53.9±17.3%
F (oral bioavailability as gabapentin) ([4]; 75 mg-eq/kg): 22.9±1.1%
AUC G (AUC of gabapentin) ([4]; 10 mg-eq/kg): 32100 ± 10400 ng·h/mL
Cmax G (Cmax of gabapentin) ([4]; 10 mg-eq/kg): 3700 ± 1600 ng/mL
AUC G (AUC of gabapentin) ([4]; 75 mg-eq/kg): 102000 ± 4900 ng·h/mL
Cmax G (Cmax of gabapentin) ([4]; 75 mg-eq/kg): 10800 ± 1300 ng/mL
increase in gabapentin exposure (as measured by AUC) on a 7.5-fold increase in dose [4]: 3.2 fold

L-Tyrosine-(O-2-Bromobenzyloxycarbonyl)-Gabapentin [4d]
% of prodrug surviving intact [1]: 3%

N[C@@H](Cc1cccc2ccccc12)C(=O)NCC1(CC(=O)O)CCCCC1 [1l, L-1-Naphthylalanine-Gabapentin]
% of prodrug surviving intact [1]: 29%
Cmax PD (Cmax of prodrug in plasma) [2]: 500 ng/mL

NC(Cc1ccc(F)cc1F)C(=O)NCC1(CC(=O)O)CCCCC1 [1ap, D, L-2,4-Difluorophenylalanine-Gabapentin]
% of prodrug surviving intact [1]: 90%
Cmax PD (Cmax of prodrug in plasma) [2]: 278000 ng/mL

N[C@@H](Cc1ccccc1F)C(=O)NCC1(CC(=O)O)CCCCC1 [1ab, L-2-Fluorophenylalanine-Gabapentin]
fraction absorbed intact following oral administration [5]: about 60%

N[C@@H](Cc1ccc(C(F)(F)F)cc1)C(=O)NCC1(CC(=O)O)CCCCC1 [1aa, L-4-Trifluoromethylphenylalanine-Gabapentin]
% of prodrug surviving intact [1]: 97%
Cmax PD (Cmax of prodrug in plasma) [2]: 30000 ng/mL

N#Cc1cccc(C[C@H](N)C(=O)NCC2(CC(=O)O)CCCCC2)c1 [1al, L-3-Cyanophenylalanine-Gabapentin]
% of prodrug surviving intact [1]: 46%
Cmax PD (Cmax of prodrug in plasma) [2]: 600 ng/mL

N[C@@H](Cc1cc(F)cc(F)c1)C(=O)NCC1(CC(=O)O)CCCCC1 [1ao, L-3,5-Difluorophenylalanine-Gabapentin]
% of prodrug surviving intact [1]: 48%
Cmax PD (Cmax of prodrug in plasma) [2]: 2900 ng/mL

N[C@@H](CO)C(=O)NCC1(CC(=O)O)CCCCC1 [1ax, L-Serine-Gabapentin]
increase in gabapentin exposure (as measured by AUC) on a 7.5-fold increase in dose [4]: 5.1 fold
fraction absorbed intact following oral administration [5]: 15-20%

N#Cc1ccc(C[C@H](N)C(=O)NCC2(CC(=O)O)CCCCC2)cc1 [1am, L-4-Cyanophenylalanine-Gabapentin]
% of prodrug surviving intact [1]: 90%
Cmax PD (Cmax of prodrug in plasma) [2]: 22400 ng/mL

— patent publication US20040254344A1, “Amino acid conjugates providing for sustained systemic concentrations of gaba analogues” (priority 2001, published 2004)
